US11547681B2, “N-acylethanolamide derivatives and uses thereof” (ELIEM THERAPEUTICS, INC., priority 2016, dated 2023)
Read-outs that look alike come from different tables or passages of the source.

Test: Plasma stability (37° C., pH 7.4), human
Assay type: in vitro ADME
Settings: for half-life at 1 μM: both sexes, human, plasma; for % Remaining of Initial (n = 1), 0 min / % Remaining of Initial (n = 1), 15 min / % Remaining of Initial (n = 1), 30 min / % Remaining of Initial (n = 1), 60 min / % Remaining of Initial (n = 1), 120 min / % Remaining of Initial: human plasma; for % Remaining of Initial (n = 1), 0 min: pH 7.4, 0 min; for % Remaining of Initial (n = 1), 15 min: pH 7.4, 15 min; for % Remaining of Initial (n = 1), 30 min: pH 7.4, 30 min; for % Remaining of Initial (n = 1), 60 min: pH 7.4, 60 min; for % Remaining of Initial (n = 1), 120 min: pH 7.4, 120 min; for % Remaining of Initial: n = 1; for % Remaining of Initial (n = 1): Human plasma
Method: (§1) Studies were carried out in mixed-gender human plasma (Lot #GLP530-5), male Sprague-Dawley rat (Lot #RAT297944, RAT313140), male CD-1 mouse (Lot #MSE237700), and male Beagle dog (Lot #BGL87670, BGL82614), collected on sodium heparin. Plasma was adjusted to pH 7.4 prior to initiating the experiments. DMSO stocks were first prepared for the test articles. Aliquots of the DMSO solutions were dosed into 700 μL of plasma, which had been pre-warmed to 37° C., at a final test article concentration of 1 μM. […] Samples were stored at 4° C. until the end of the experiment. After the final time point was sampled, the plate was mixed and then centrifuged at 3,000 rpm for 10 minutes. Calibration standards were prepared in matched matrix. […] Analytical conditions are outlined in Appendix 8-1.
as §1, with “#AS1650-2),” for “#GLP530-5),”, “#RAT297944),” for “#RAT297944, RAT313140),”, “CD-I” for “CD-1”, “#BGL91384),” for “#BGL87670, BGL82614),”, “10-1.” for “8-1.”
Studies were carried out in mixed-gender human plasma (Lot #AS1650-2), male Sprague-Dawley rat (Lot #RAT297944), male CD-1 mouse (Lot #MSE237700), and male Beagle dog (Lot #BGL91384), collected on sodium heparin. Plasma was adjusted to pH 7.4 prior to initiating the experiments. DMSO stocks were first prepared for test articles. […] Samples were stored at 4° C. until the end of experiment. After the final time point was sampled, the plate was mixed and then centrifuged at 3,000 rpm for 10 minutes. Calibration standards were prepared in matched matrix. […] Analytical conditions are outlined in Appendix 13-1.
Studies were carried out in mixed-gender human plasma (Lot #AS 1650-2), male Sprague-Dawley rat (Lot #RAT320835), male CD-1 mouse (Lot #MSE260693), and 6 male Beagle dog (Lot #BGL91384), on sodium heparin. Plasma was adjusted to pH 7.4 prior to initiating the experiments. DMSO stocks were first prepared for the test articles. Aliquots of the DMSO solutions were dosed into 700 μL of plasma, which had been pre-warmed to 37° C., at a final test article concentration of 1 μM. […] Samples were stored at 4° C. until the end of the experiment. After the final time point was sampled, the plate was mixed and then centrifuged at 3,000 rpm for 10 minutes. Calibration standards were prepared in matched matrix. […] Analytical conditions are outlined in Appendix 17-1.

[1] = pH 7.4, human plasma, test article 1 μM, 37° C., pH 7.4, read-out: Half-life
[2] = pH 7.4, human plasma, calculated value beyond duration of experiment, read-out: Half-life (min), calculated half-life in parentheses
[3] = pH 7.4, human plasma, read-out: Half-life

Row | SMILES | half-life at 1 μM [1] [min] | half-life at 1 μM [2] [min] | % Remaining of Initial (n = 1), 0 min (test article 1 μM, 37° C.) [%] | % Remaining of Initial (n = 1), 15 min (test article 1 μM, 37° C.) [%] | % Remaining of Initial (n = 1), 30 min (test article 1 μM, 37° C.) [%] | % Remaining of Initial (n = 1), 60 min (test article 1 μM, 37° C.) [%] | % Remaining of Initial (n = 1), 120 min (test article 1 μM, 37° C.) [%] | further results
1 | CCCCCCCCCCCCCCCC(=O)NCCOC(=O)CCC [Compound I-2] | > 120 | 135 | 100 | 96 | 91 | 84 | 51 | 
2 | CCCCCCCCCCCCCCCC(=O)NCCOC(=O)CCC(=O)OCC(COC(=O)CCCCCCC)OC(=O)CCCCCCC (stereo not shown) [Compound I-3, PEA-Succinate-Glycerol-Di-Caprylic] | > 120 | 211 | 100 | 109 | 84 | 65 | 77 | 
3 | CC/C=C\C/C=C\C/C=C\C/C=C\C/C=C\CCCC(=O)OCCNC(=O)CCCCCCCCCCCCCCC [Compound I-5] | > 120 | 195 | 100 | 110 | 81 | 82 | 69 | 
4 | CCCCC/C=C\C/C=C\CCCCCCCC(=O)OCCNC(=O)CCCCCCCCCCCCCCC [Compound I-6] | > 120 | 147 | 100 | 79 | 102 | 74 | 53 | 
5 | CCCCCCCCCCCCCCCC(=O)NCCOC(=O)CCC(=O)OC[C@H]1O[C@@](CO)(O[C@H]2O[C@H](CO)[C@@H](O)[C@H](O)[C@H]2O)[C@@H](O)[C@@H]1O [Compound I-7] | < 1 |  | 100 | <1.0 | <1.0 | <1.0 | <1.0 | 
6 | CCCCCCCCCCCCCCCC(=O)NCCOC(=O)CCC(=O)OC(CO)CO [Compound I-8] |  |  |  |  |  |  |  | half-life at 1 μM [3]: < 1 min; % Remaining of Initial (0 min, 1 μM): 100%; % Remaining of Initial (15 min, 1 μM): <1.0%; % Remaining of Initial (30 min, 1 μM): <1.0%; % Remaining of Initial (60 min, 1 μM): <1.0%; % Remaining of Initial (120 min, 1 μM): <1.0%
7 | CCCCCCCCCCCCCCCC(=O)NCCOC(=O)CCC(=O)OCC(O)CO (stereo not shown) [Compound I-9] | 3.8 |  | 100 | 6.4 | 1.4 | <1.0 | <1.0 | 
8 | CCCCCCCCCCCCCCCC(=O)NCCOC(=O)CCC(=O)OCC(COC(=O)CCC)OC(=O)CCC (stereo not shown) [Compound I-11] | 34 |  | 100 | 67 | 47 | 34 | 10 | 
9 | CCCCC/C=C\C/C=C\CCCCCCCC(=O)OCC(COC(=O)CCC(=O)OCCNC(=O)CCCCCCCCCCCCCCC)OC(=O)CCCCCCC/C=C\C/C=C\CCCCC (stereo not shown) [Compound I-13] |  |  |  |  |  |  |  | % Remaining of Initial (n = 1) (0 min, 1 μM): 100%; % Remaining of Initial (n = 1) (15 min, 1 μM): 104%; % Remaining of Initial (n = 1) (30 min, 1 μM): 115%; % Remaining of Initial (n = 1) (60 min, 1 μM): 95%; % Remaining of Initial (n = 1) (120 min, 1 μM): 40%; half-life at 1 μM (pH 7.4, Human plasma, 1 μM, read-out: Half-life): 120 min
10 | CCCCCCCCCCCCCCCC(=O)NCCOC(=O)CCC(=O)OC(COC(=O)CCC)COC(=O)CCC [Compound I-16] |  |  |  |  |  |  |  | half-life at 1 μM [3]: 31 min; % Remaining of Initial (0 min, 1 μM): 100%; % Remaining of Initial (15 min, 1 μM): 78%; % Remaining of Initial (30 min, 1 μM): 51%; % Remaining of Initial (60 min, 1 μM): 24%; % Remaining of Initial (120 min, 1 μM): 5.8%
